In patent publication US20220409647A1, “COMPOSITIONS, METHODS AND KITS FOR ALTERING ADIPOCYTES” (NuSirt Sciences, Inc., priority 2019, published 2022):

Assays:
CPT1b = CPT1b gene expression by qRT-PCR in hASC cells; type: cell-based, human; details: 8 μM Naringenin, 30 μM Nicotinamide Riboside or the combination, 6 days
Protocol: (§1) Human adipose derived stem cells (hASC, LaCell, L.L.C., New Orleans, La.) from two different female overweight (BMI=26) donors were plated at a density of 10000 cells/cm^2 on 96-well plates and 24-well plates in preadipocyte medium (HyClone DMEM/F12 1:1, 10% fetal bovine serum (FBS), 1% Antibiotic/Antimycotic (Penicillin/Streptomycin/amphotericin)) at 37° C. in 5% CO2. […]
(§2) hASC cells were grown in a 96-well plate and treated as indicated. […] Gene expression was assessed by quantitative real-time polymerase chain reaction (qRT-PCR) using StepOnePlus™ PCR system (Thermo Fisher Scientific) and TaqMan Gene expression assays for UCP1 (Invitrogen, assay ID # Hs01084772_m1), Glut 4 (Invitrogen, assay ID # Hs00168966_m1), CPT1b (Invitrogen, assay ID # Hs0046298_s1), PRDM16 (Invitrogen, assay ID # Hs00223161_m1), AdipoQ (Invitrogen, assay ID # HS00605917_m1), ChREBP (Invitrogen, assay ID # HS00975714_m1), ATGL (Invitrogen, assay ID # Hs00982042), and RPL13A (Invitrogen, assay ID #Hs04194366_g1) as endogenous control.
(§3) Results were combined and calculated as fold changes of Control and represented as mean±SEM.

AdipoQ = AdipoQ gene expression by qRT-PCR in hASC cells; type: cell-based, human; details: 8 μM Naringenin, 30 μM Nicotinamide Riboside or the combination, 6 days
Protocol: as §1, §2, §3

PRDM16 = PRDM16 gene expression by qRT-PCR in hASC cells; type: cell-based, human; details: 8 μM Naringenin, 30 μM Nicotinamide Riboside or the combination, 6 days
Protocol: as §1, §2, §3

p-AMPK = assay: Western blot of p-AMPK in hASC cells; type: cell-based, human; details: 8 μM Naringenin, 30 μM Nicotinamide Riboside or the combination, 6 days
Protocol: (§4) Human adipose derived stem cells (hASC, LaCell, L.L.C., New Orleans, La.) from two different female overweight (BMI=26) donors were plated at a density of 10000 cells/cm^2 on 96-well plates and 24-well plates in preadipocyte medium (HyClone DMEM/F12 1:1, 10% fetal bovine serum (FBS), 1% Antibiotic/Antimycotic (Penicillin/Streptomycin/amphotericin)) at 37° C. in 5% CO2. One day after reaching confluence, preadipocytes were induced to differentiate with a differentiation medium consisting of 70% Gibco DMEM (high glucose 4.5 g/L), 30% HyClone DMEM/F12 1:1 (3 g/L glucose), 3% FBS, 1% Antibiotic/Antimycotic, 1 μM Dexamethasone, 33 μM Biotin, 100 nM Insulin, 20 μM Pantothenate, 5 μM Rosiglitazone, 500 μM IBMX. […]
(§5) The Phospho-AMPKα (Thr172)-, AMPK- and Sirt1—antibody was obtained from Cell Signaling (Danvers, Mass.). hASC cells were grown on 24-well plates and treated as indicated. Proteins were extracted by using standard protocols and measured by BCA kit (Thermo Scientific). […] Visualization and chemiluminescent detection was conducted using BioRad ChemiDoc instrumentation and software (Bio-Rad Laboratories, Hercules, Calif.) and band intensity was assessed using Image Lab 4.0 (Bio-Rad Laboratories, Hercules, Calif.), with correction for background. […]

UCP1 = UCP1 gene expression by qRT-PCR in hASC cells; type: cell-based, human; details: 8 μM Naringenin, 30 μM Nicotinamide Riboside or the combination, 6 days
Protocol: as §1, §2, §3

Sirt1 = assay: Western blot of Sirt1 in hASC cells; type: cell-based, human; details: 8 μM Naringenin, 30 μM Nicotinamide Riboside or the combination, 6 days
Protocol: as §4, §5

intracellular NAD+ = details: human and animal data (background); cited from earlier work
ChREBP = ChREBP gene expression by qRT-PCR in hASC cells; type: cell-based, human; details: 8 μM Naringenin, 30 μM Nicotinamide Riboside or the combination, 6 days
Protocol: as §1, §2, §3

Glut4 = Glut4 gene expression by qRT-PCR in hASC cells; type: cell-based, human; details: 8 μM Naringenin, 30 μM Nicotinamide Riboside or the combination, 6 days
Protocol: as §1, §2, §3

ATGL = ATGL gene expression by qRT-PCR in hASC cells; type: cell-based, human; details: 8 μM Naringenin, 30 μM Nicotinamide Riboside or the combination, 6 days
Protocol: as §1, §2
Results were combined and calculated as fold changes of Control and represented as mean±SEM. […]

hASC cells = assay: Fatty acid oxidation (Seahorse) oxygen consumption; type: cell-based, human; details: Seahorse XF 24; palmitate 200 μM; 8 μM Naringenin or combination with 30 μM NR
Protocol: as §4, with “IBMX. Preadipocytes were maintained in this differentiation medium for 4 to 5 days and subsequently cultured in maintenance medium (70% Gibco DMEM high glucose, 30% HyClone DMEM/F12 1:1, 3% FBS, 1% Antibiotic/Antimycotic, 1 μM Dexamethasone, 33 μM Biotin, 100 nM Insulin, 20 μM Pantothenate) (=day 0 for experiments).” for “IBMX.”
The palmitate-stimulated oxygen consumption rate was measured with the XF 24 analyzer (Seahorse Bioscience, Billerica, Mass., USA) Cells were seeded and differentiated as described above. […] Data for each sample were normalized to the pre-palmitate injection baseline for that sample and expressed as % change from that baseline. […] All data are expressed as mean±SEM. […]

## NC(=O)c1ccc[n+]([C@@H]2O[C@H](CO)[C@@H](O)[C@H]2O)c1 [NR, Nicotinamide Riboside]
CPT1b
  CPT1b expression, fold changes of Control: ~2.4 fold
AdipoQ
  AdipoQ expression, fold changes of Control: no significant effect
PRDM16
  PRDM16 expression, fold changes of Control: significantly upregulated
p-AMPK
  p-AMPK protein expression: no significant effect
UCP1
  UCP1 expression, fold changes of Control: no independent effect
Sirt1
  Sirt1 protein expression: no significant effect
Intracellular NAD+
  increase in NAD+ resulting from administration: ~40%
ChREBP
  ChREBP expression, fold changes of Control: two-fold
Glut4
  Glut4 expression, fold changes of Control: no independent effect

## NC(=O)c1ccc[n+]([C@@H]2O[C@H](COP(=O)([O-])O)[C@@H](O)[C@H]2O)c1 [NMN, Nicotinamide mononucleotide]
Intracellular NAD+
  increase in NAD+ resulting from administration: ~40%

## O=C1C[C@@H](c2ccc(O)cc2)Oc2cc(O)cc(O)c21 [naringenin, Naringenin]
CPT1b
  CPT1b expression, fold changes of Control: ~2.4 fold
ATGL
  ATGL expression, fold changes of Control: two-fold
AdipoQ
  AdipoQ expression, fold changes of Control: modestly but significantly increased
PRDM16
  PRDM16 expression, fold changes of Control: significantly upregulated
hASC cells
  increase in both basal and palmitate-induced oxygen consumption (fatty acid oxidation): 30-40%
p-AMPK
  p-AMPK protein expression: significantly increased
UCP1
  UCP1 expression, fold changes of Control: ~12 fold
Sirt1
  Sirt1 protein expression: significantly increased
ChREBP
  ChREBP expression, fold changes of Control: two-fold
Glut4
  Glut4 expression, fold changes of Control: two-fold
